# Results from a melting point compilation (Tetko et al.; mined from patent text by program, amines drawn as free bases though some values may be those of a salt).
row,melting point [°C],SMILES
1,201 to 203,COc1ccc(Cn2nnnc2C(=O)Nc2cc(Cl)cc(NC(=O)c3nnnn3Cc3ccc(OC)cc3)n2)cc1
2,146 to 148,N=c1cc(N)nc2n1CCS2
3,179,COC(=O)c1ccc2cc(C(=O)c3cc(OCc4ccc(F)cc4)c4c(c3)C(C)(C)CCC4(C)C)ccc2c1
4,176,CCC(=O)OC1C(=O)N(c2nnc(C(C)(C)C)s2)C(=O)N1C (configuration not stated)
5,238 to 240,Fc1cnc(Nc2nc3c(s2)CCN(CCCN2CCC(F)(F)CC2)c2n[nH]cc2-3)nc1
6,60,C=C(C)C#Cc1cccc2c1C(=O)OC(C)(C)O2
7,98 to 100,O=C(O)COc1ccc(SCc2ccc(OCc3cc(Cl)ccc3Cl)cc2)c2c1CCCO2
8,109 to 110,Cc1cc(C)c(C(=O)c2cc(C(C)(C)C)c(O)c(C(C)(C)C)c2)c(Cl)n1
9,368 to 370,O=C(O)c1cccc(N2C(=O)c3ccc([N+](=O)[O-])cc3C2=O)c1
10,305 to 308,Fc1ccc2c(c1)nc(Cl)c1nncn12
11,77 to 80,CC(=O)Oc1ccc2c(c1)CC=C1C2CCC2(C)C=CCC12 (configuration not stated)
12,88 to 95,COc1cc(F)ccc1-c1ccc(S(=O)(=O)N2c3ccccc3CC2C(=O)NCCOc2ccc(C(=O)O)c(F)c2)cc1 (configuration not stated)
13,114 to 115,O=Cc1cnc(-c2ccc(OC(F)(F)F)cc2)nc1
14,124 to 126,CC(C)(CO)Nc1nc(-c2cccc(C#N)c2)cs1
15,59,CCCCCCCCOc1cc(OC)cc(N)c1OCOC
16,217 to 219,COCCc1sc2ncnc(N)c2c1-c1ccc(NC(=O)Nc2ccccc2C)cc1
17,146 to 148,O=C(O)[C@@H]1CSC(c2ccccc2O)N1C(=O)CCS (some centres not stated)
18,114,O=C(OCc1ccccc1)ON1C(=O)CC2(CCN(C(=O)OCc3ccccc3)CC2)C1=O
19,172,CNc1nc(N)nc2c1ncn2C1OC(CO)C(O)C1F (configuration not stated)

row,melting point [°C],SMILES
1,233 to 234,COC(=O)c1cc(NC(=N)N)c(NC(C)=O)cc1O
2,62 to 63,CCCCCCCCCCCCCCCCCCOc1cc(C(=O)OC)cc(N(CC(=O)OCc2ccccc2)CC(=O)OCc2ccccc2)c1
3,121 to 122,CCOC(=O)Nc1cccc(C(=O)C=CN(C)C)c1
4,198 to 200,c1ccc2[nH]c(Cn3ccnc3)nc2c1
5,110,CC(Oc1ccc2nc(NC(=O)NCCN3CCOCC3)sc2c1)c1c(Cl)ccc(F)c1Cl (configuration not stated)
6,184 to 185,Cc1c(CNCC2CCOCC2)[nH]c2c(C)c(NC(=O)c3ccc(OC[C@@H]4CCCO4)cc3)ccc12
7,110 to 113,CCc1ncnc2ccc(I)cc12
8,203 to 205,COc1cc(C)nc(NC(=O)NS(=O)(=O)c2cccc3c2OCCO3)n1
9,105 to 110,CCCCCCCCCCCCCCCc1ccc2c(c1)C1(O)C(=O)c3ccccc3C1(O)O2 (configuration not stated)
10,100 to 105,CC(C)(C)NC(=O)[C@@H]1C[C@H](Br)CN1C(=O)[C@@H](O)[C@H](Cc1ccccc1)NC(=O)[C@H](CC(N)=O)NC(=O)OCc1ccccc1
11,101 to 102,COc1ccc(CC(O)c2cc(OC)cc(OC)c2)cc1 (configuration not stated)
12,61 to 63,COc1cccc(C(CC(=O)O)SC)c1 (configuration not stated)
13,198 to 200,C#Cc1ccc2c(c1)C=C(C(=O)O)C(C(F)(F)F)O2 (configuration not stated)
14,96 to 97,O=C1N[C@H](CO)C[C@H]1C1CCCCC1
15,118 to 121,CCCCn1c(=O)n(CCC)c(=O)c2c(N)n(CCCl)nc21
16,166 to 167,COc1nc2cc(C)c(C)c(N)c2nc1OC
17,327 to 330,Oc1ccc(-c2nc(-c3ccccc3)[nH]c2-c2ccc(O)cc2)cc1
18,234 to 236,CNC(=O)c1ccc(-c2ccc(NC(=O)NCc3cccnc3)cc2)nc1N

# The remaining lines, values behind:
row,SMILES,melting point [°C]
1,CC1=C(C(=O)OC(C)(C)C)C(c2cccc(Br)c2)C(C(=O)OC(C)(C)C)=C(C)N1,195 to 196
2,Nc1nc2ccc(CO)cc2n1Cc1cccc2cccnc12,230
3,COc1cc(Nc2nccc(Sc3ccccc3)n2)cc(OC)c1OC,110
4,O=C(NCCCCCn1cncn1)c1ccc(Br)cc1,93 to 95
5,CN1CCc2cc(NC(=O)/C=C/c3ccc(C(C)(C)C)cc3)ccc21,194
6,CCn1c(=O)c2c(nc(/C=C/c3ccc(OCCCCBr)cc3)n2C)n(CC)c1=O,175 to 176
7,O=C1Nc2ccc(-c3cccc(Cl)c3)cc2C(c2ccccc2)O1 (configuration not stated),177 to 178
8,CCCCOC(=O)C1CC2CC(CP(=O)(O)O)CCC2CN1 (configuration not stated),161 to 169
9,COCCNC(=O)Cc1ccc2ccn(C3CCN(CCc4ccc(F)cc4)CC3)c2c1,113 to 114
10,CCOc1nn(-c2ccc(C(F)(F)F)cn2)cc1CCCOc1cc(CC(=O)O)n(C)n1,151 to 152
11,OCc1cn(Cc2ccc(OCc3ccccc3)cc2)nc1-c1ccc(F)cc1,112 to 113
12,COC(CNC(=O)CCl)OC,33 to 36
13,COc1ccc2c(C3=CCNCC3)c[nH]c2c1,193 to 194
14,Cc1cc(C(C)(C)C)c(O)c(P(=O)(c2ccccc2)C2c3ccccc3-c3ccccc32)c1 (configuration not stated),237 to 240
15,COC(=O)C(Cc1cc(Br)c(S(=O)(=O)c2ccc(OC)c(C(C)C)c2)c(Br)c1)C(=O)OC,121 to 123
16,C[C@H]1CNCC[C@@]12OC(=O)c1ccccc12 (racemic),131
17,O=C(NCCO)c1cccc(-c2cccc3nn(Cc4cccc(F)c4)cc23)c1,187 to 188
18,CCOc1cc(C)c(CCl)c(C)c1C,63 to 64

row,SMILES,melting point [°C]
1,COc1ccc(-c2cccc3c2/C(=C/c2ccc[nH]2)C(=O)N3)cc1,222 to 223
2,CC1(Cc2ccccc2)CCCNC1=O (configuration not stated),76 to 78
3,c1ccc2c(C3CN4CCC3CC4)c[nH]c2c1 (configuration not stated),214 to 216
4,CC(=O)Nc1nc(CCc2ccc(CCl)cc2)cs1,145 to 146
5,CC(C)n1nc(-c2sc(NC(=O)N(C)C)nc2-c2ccccc2)ccc1=O,199 to 200
6,CCOC(=O)C1=C(COCc2cc(=O)[nH]c(N)n2)NC(C)=C(C(=O)OC)C1c1cccc(Cl)c1Cl (configuration not stated),222 to 225
7,CN(CCCNC(=O)NCCCOc1cccc(CN2CCCCC2)c1)CCC(c1ccc(F)cc1)c1ccccn1 (configuration not stated),65 to 67
8,CNc1nc(-c2cccc(-c3cncc(S(C)=O)c3)c2)c2cc(OC)c(OC)cc2n1 (configuration not stated),208 to 210
9,O=C(c1ccc(F)cc1F)C1CCN(CC2=Cc3ccccc32)CC1,70
10,O=c1oc2ccccc2c(O)c1SCCOc1ccccc1,120 to 121
11,CCCCCCCCCCCCCCCCCCOc1cc(O)cc(N(CC(=O)O)CC(=O)O)c1,143 to 146
12,CC(=O)NC[C@H]1CN(c2ccc3c(c2)CCC(C)N3C(=O)OCc2ccccc2)C(=O)O1 (some centres not stated),126 to 129
13,NCCOc1cccc2[nH]ccc12,123 to 125
14,O=C(CC1(c2ccc(OCc3ccc4ccccc4n3)cc2)CCCC1)NS(=O)(=O)Cc1ccccc1,171
15,Nc1ccc2c(c1)N1CCCN=C1S2,197
16,COc1nc(Cl)nc(NC(=O)NS(=O)(=O)c2ccccc2OC(F)F)n1,167 to 168
17,COc1ccc(N2CCN(c3ccc(N)cn3)CC2)cc1,134 to 135
